The results in this text go back to ChEMBL document CHEMBL1131309, “Isoindol-1-one analogues of 4-(2'-methoxyphenyl)-1-[2'-[N-(2"-pyridyl)-p-iodobenzamido]ethyl]pipera zine (p-MPPI) as 5-HT1A receptor ligands” (J Med Chem, 1998).

Each structure is given as a SMILES string.

Data set [1] deals with T1, 5-hydroxytryptamine receptor 1A (Rattus norvegicus, UniProt P19327).
T1 sequence (P19327 whole entry): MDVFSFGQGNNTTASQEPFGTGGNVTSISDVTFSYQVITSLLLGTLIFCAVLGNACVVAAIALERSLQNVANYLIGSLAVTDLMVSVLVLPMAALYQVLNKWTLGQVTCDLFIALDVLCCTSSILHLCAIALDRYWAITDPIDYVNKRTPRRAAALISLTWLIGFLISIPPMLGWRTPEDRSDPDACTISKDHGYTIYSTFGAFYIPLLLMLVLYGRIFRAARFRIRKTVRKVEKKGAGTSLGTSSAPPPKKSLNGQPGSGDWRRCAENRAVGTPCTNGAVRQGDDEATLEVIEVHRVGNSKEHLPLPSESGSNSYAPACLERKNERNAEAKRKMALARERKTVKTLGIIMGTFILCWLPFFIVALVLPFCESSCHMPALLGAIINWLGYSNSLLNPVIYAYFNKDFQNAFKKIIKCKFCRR
Description: (§1) In vitro binding affinity for 5-hydroxytryptamine 1A receptor in rat hippocampal membranes by [125I]-labeled agonist displacement.

The test system of data set [2] is Rattus norvegicus. Briefly: Biodistribution was measured in rat kidney by injecting the radiolabeled compound intravenously and the value measured after 2 min. In kind it is ADME, organism-based. As to conditions: in vivo, iv.
Data set [3] deals with Rattus norvegicus. As to the kind of experiment: Biodistribution was measured in rat striatum by injecting the radiolabeled compound intravenously and the value measured after 2 min. In kind it is ADME, organism-based. To be noted: in vivo, iv.
For data set [4], the system named is Rattus norvegicus. As to the kind of experiment: Biodistribution was measured in rat cortex by injecting the radiolabeled compound intravenously and the value measured after 2 min. In kind it is ADME, organism-based. As to conditions: in vivo, iv.
In data set [5] the test system is Rattus norvegicus. As to the kind of experiment: Biodistribution was measured in rat thyroid by injecting the radiolabeled compound intravenously and the value measured after 2 min. In kind it is ADME, organism-based, Thyroid gland. To be noted: in vivo, iv.
The test system of data set [6] is Rattus norvegicus. As to the kind of experiment: Biodistribution was measured in rat cortex by injecting the radiolabeled compound intravenously and the value measured after 30 min. To be noted: in vivo, iv, 0.5 h. In kind it is ADME, organism-based.
The test system of data set [7] is Rattus norvegicus. Briefly: Biodistribution was measured in rat skin by injecting the radiolabeled compound intravenously and the value measured after 60 min. In kind it is ADME, organism-based, Zone of skin. As to conditions: in vivo, iv, 1 h.
The subject of data set [8] is Rattus norvegicus. As to the kind of experiment: Biodistribution was measured in rat heart by injecting the radiolabeled compound intravenously and the value measured after 30 min. In kind it is ADME, organism-based. To be noted: in vivo, iv, 0.5 h.
Data set [9] concerns Rattus norvegicus. Briefly: Biodistribution was measured in rat liver by injecting the radiolabeled compound intravenously and the value measured after 30 min. In kind it is ADME, organism-based. As to conditions: in vivo, iv, 0.5 h.
Data set [10] deals with Rattus norvegicus. Briefly: Biodistribution was measured in rat cerebellum by injecting the radiolabeled compound intravenously and the value measured after 60 min. In kind it is ADME, organism-based. As to conditions: in vivo, iv, 1 h.
The test system of data set [11] is Rattus norvegicus. Briefly: Biodistribution was measured in rat brain by injecting the radiolabeled compound intravenously and the value measured after 30 min. In kind it is ADME, organism-based. To be noted: in vivo, iv, 0.5 h.
The test system of data set [12] is Rattus norvegicus. As to the kind of experiment: Biodistribution was measured in rat brain by injecting the radiolabeled compound intravenously and the value measured after 60 min. In kind it is ADME, organism-based. As to conditions: in vivo, iv, 1 h.
For data set [13], the system named is Rattus norvegicus. As to the kind of experiment: Biodistribution was measured in rat thyroid by injecting the radiolabeled compound intravenously and the value measured after 60 min. In kind it is ADME, organism-based, Thyroid gland. To be noted: in vivo, iv, 1 h.
Data set [14] concerns the target T1, 5-hydroxytryptamine receptor 1A. The source holds these as a separate data set.
Description: as §1
The test system of data set [15] is Rattus norvegicus. As to the kind of experiment: Biodistribution was measured in rat brain by injecting the radiolabeled compound intravenously and the value measured after 2 min. To be noted: in vivo, iv. In kind it is ADME, organism-based.
Data set [16] deals with Rattus norvegicus. Briefly: Biodistribution was measured in rat cerebellum by injecting the radiolabeled compound intravenously and the value measured after 30 min. To be noted: in vivo, iv, 0.5 h. In kind it is ADME, organism-based.
In data set [17] the test system is Rattus norvegicus. Briefly: Biodistribution was measured in rat muscle by injecting the radiolabeled compound intravenously and the value measured after 2 min. To be noted: in vivo, iv. In kind it is ADME, organism-based, Muscle tissue.
In data set [18] the test system is Rattus norvegicus. Briefly: Biodistribution was measured in rat muscle by injecting the radiolabeled compound intravenously and the value measured after 60 min. In kind it is ADME, organism-based, Muscle tissue. To be noted: in vivo, iv, 1 h.
In data set [19] the test system is Rattus norvegicus. Briefly: Biodistribution was measured in blood of rat by injecting the radiolabeled compound intravenously and the value measured after 60 min. In kind it is ADME, organism-based. As to conditions: in vivo, iv, 1 h.
Data set [20] deals with Rattus norvegicus. As to the kind of experiment: Biodistribution was measured in rat hippocampus by injecting the radiolabeled compound intravenously and the value measured after 30 min. To be noted: in vivo, iv, 0.5 h. In kind it is ADME, organism-based.
Data set [21] deals with Rattus norvegicus. Briefly: Biodistribution was measured in rat lung by injecting the radiolabeled compound intravenously and the value measured after 30 min. In kind it is ADME, organism-based. As to conditions: in vivo, iv, 0.5 h.
In data set [22] the test system is Rattus norvegicus. Briefly: Biodistribution was measured in rat liver by injecting the radiolabeled compound intravenously and the value measured after 60 min. In kind it is ADME, organism-based. To be noted: in vivo, iv, 1 h.
Data set [23] concerns Rattus norvegicus. Briefly: Biodistribution was measured in rat liver by injecting the radiolabeled compound intravenously and the value measured after 2 min. In kind it is ADME, organism-based. As to conditions: in vivo, iv.
For data set [24], the system named is Rattus norvegicus. Briefly: Biodistribution was measured in blood of rat by injecting the radiolabeled compound intravenously and the value measured after 30 min. In kind it is ADME, organism-based. To be noted: in vivo, iv, 0.5 h.
Data set [25] relates to Rattus norvegicus. Briefly: Biodistribution was measured in rat striatum by injecting the radiolabeled compound intravenously and the value measured after 60 min. In kind it is ADME, organism-based. To be noted: in vivo, iv, 1 h.
Data set [26] concerns Rattus norvegicus. As to the kind of experiment: Biodistribution was measured in rat lung by injecting the radiolabeled compound intravenously and the value measured after 60 min. As to conditions: in vivo, iv, 1 h. In kind it is ADME, organism-based.
Data set [27] is described as follows: Biodistribution was measured in hippocampus region(HP/CB) by injecting the radiolabeled compound intravenously and the value measured after 60 min. In kind it is ADME, organism-based. To be noted: in vivo, iv, 1 h.
In data set [28] the test system is Rattus norvegicus. As to the kind of experiment: Biodistribution was measured in rat hippocampus by injecting the radiolabeled compound intravenously and the value measured after 60 min. In kind it is ADME, organism-based. As to conditions: in vivo, iv, 1 h.
In data set [29] the test system is Rattus norvegicus. Briefly: Biodistribution was measured in rat spleen by injecting the radiolabeled compound intravenously and the value measured after 30 min. As to conditions: in vivo, iv, 0.5 h. In kind it is ADME, organism-based.
The subject of data set [30] is Rattus norvegicus. Briefly: Biodistribution was measured in rat striatum by injecting the radiolabeled compound intravenously and the value measured after 30 min. In kind it is ADME, organism-based. As to conditions: in vivo, iv, 0.5 h.
Data set [31] in a line: Biodistribution was measured in hippocampus region(HP/CB) by injecting the radiolabeled compound intravenously and the value measured after 2 min. In kind it is ADME, organism-based. To be noted: in vivo, iv.
Data set [32] concerns Rattus norvegicus. Briefly: Biodistribution was measured in blood of rat by injecting the radiolabeled compound intravenously and the value measured after 2 min. In kind it is ADME, organism-based. As to conditions: in vivo, iv.
Data set [33] deals with Rattus norvegicus. As to the kind of experiment: Biodistribution was measured in rat hippocampus by injecting the radiolabeled compound intravenously and the value measured after 2 min. In kind it is ADME, organism-based. To be noted: in vivo, iv.
For data set [34], the system named is Rattus norvegicus. As to the kind of experiment: Biodistribution was measured in rat kidney by injecting the radiolabeled compound intravenously and the value measured after 30 min. To be noted: in vivo, iv, 0.5 h. In kind it is ADME, organism-based.
Data set [35] has as its system Rattus norvegicus. As to the kind of experiment: Biodistribution was measured in rat spleen by injecting the radiolabeled compound intravenously and the value measured after 2 min. In kind it is ADME, organism-based. As to conditions: in vivo, iv.
In data set [36] the test system is Rattus norvegicus. As to the kind of experiment: Biodistribution was measured in rat muscle by injecting the radiolabeled compound intravenously and the value measured after 30 min. In kind it is ADME, organism-based, Muscle tissue. As to conditions: in vivo, iv, 0.5 h.
Data set [37] concerns Rattus norvegicus. As to the kind of experiment: Biodistribution was measured in rat lung by injecting the radiolabeled compound intravenously and the value measured after 2 min. In kind it is ADME, organism-based. As to conditions: in vivo, iv.
Data set [38] deals with Rattus norvegicus. Briefly: Biodistribution was measured in rat heart by injecting the radiolabeled compound intravenously and the value measured after 60 min. In kind it is ADME, organism-based. As to conditions: in vivo, iv, 1 h.
The test system of data set [39] is Rattus norvegicus. As to the kind of experiment: Biodistribution was measured in rat spleen by injecting the radiolabeled compound intravenously and the value measured after 60 min. In kind it is ADME, organism-based. To be noted: in vivo, iv, 1 h.
Data set [40] deals with Rattus norvegicus. Briefly: Biodistribution was measured in rat skin by injecting the radiolabeled compound intravenously and the value measured after 30 min. In kind it is ADME, organism-based, Zone of skin. As to conditions: in vivo, iv, 0.5 h.
Data set [41] can be described thus: Biodistribution was measured in hippocampus region(HP/CB) by injecting the radiolabeled compound intravenously and the value measured after 30 min. In kind it is ADME, organism-based. As to conditions: in vivo, iv, 0.5 h.
The test system of data set [42] is Rattus norvegicus. Briefly: Biodistribution was measured in rat cerebellum by injecting the radiolabeled compound intravenously and the value measured after 2 min. In kind it is ADME, organism-based. To be noted: in vivo, iv.
Data set [43] concerns Rattus norvegicus. As to the kind of experiment: Biodistribution was measured in rat heart by injecting the radiolabeled compound intravenously and the value measured after 2 min. In kind it is ADME, organism-based. To be noted: in vivo, iv.
For data set [44], the system named is Rattus norvegicus. Briefly: Biodistribution was measured in rat cortex by injecting the radiolabeled compound intravenously and the value measured after 60 min. In kind it is ADME, organism-based. As to conditions: in vivo, iv, 1 h.
Data set [45] relates to Rattus norvegicus. Briefly: Biodistribution was measured in rat thyroid by injecting the radiolabeled compound intravenously and the value measured after 30 min. As to conditions: in vivo, iv, 0.5 h. In kind it is ADME, organism-based, Thyroid gland.
Data set [46] concerns Rattus norvegicus. As to the kind of experiment: Biodistribution was measured in rat kidney by injecting the radiolabeled compound intravenously and the value measured after 60 min. In kind it is ADME, organism-based. To be noted: in vivo, iv, 1 h.

Take `COc1ccccc1N1CCN(CCn2c(=O)c3ccccc3c3ccccc32)CC1`: in data set [1], the inhibition constant (Ki) (as a rule, a dissociation constant, usually derived from enzyme kinetics or from competition with a known ligand) is 8.9 nM.
In turn, `COc1ccccc1N1CCN(CCN2Cc3ccccc3C2=O)CC1` displayed an inhibition constant (Ki) in [1] of 14.9 nM.
On to `COc1ccccc1N1CCN(CCN2C(=O)CCC2c2ccc(I)cc2)CC1` (stereo not drawn), for which the Biodistribution is reported as 3.02 % dose organ-1 in data set [2]; 0.55 % dose organ-1 in data set [3]; 0.57 % dose organ-1 in data set [4]; 0.06 % dose organ-1 in data set [5]; 0.14 % dose organ-1 in data set [6]; 6.93 % dose organ-1 in [7]. Besides, the Biodistribution was found to be 0.33 % dose organ-1 in data set [8]; 23.02 % dose organ-1 in data set [9]; 0.051 % dose organ-1 in data set [10]; 0.21 % dose organ-1 in data set [11]; 0.08 % dose organ-1 in data set [12]; 0.03 % dose organ-1 in data set [13]. Further, the Biodistribution in [15] was 0.71 % dose organ-1; in [16] it was 0.12 % dose organ-1; in data set [17] it was 14.07 % dose organ-1; in [18] it was 9.05 % dose organ-1; in data set [19] it was 2.08 % dose organ-1; in data set [20], 0.13 % dose organ-1. For the same molecule, the Biodistribution in data set [21] came to 0.75 % dose organ-1; in data set [22] it was 17.95 % dose organ-1; in data set [23] it was 19.49 % dose organ-1; in data set [24] it was 3.45 % dose organ-1; in data set [25] it was 0.053 % dose organ-1; in [26], 0.42 % dose organ-1. The Biodistribution in data set [27] is 0.88 % dose organ-1; in data set [28] it was 0.045 % dose organ-1; in data set [29], 0.22 % dose organ-1; in data set [30] it was 0.15 % dose organ-1; in [31], 1.02 % dose organ-1; in [32], 5.6 % dose organ-1. Also, the Biodistribution in data set [33] is 0.47 % dose organ-1; in data set [34], 2.2 % dose organ-1; in [35], 0.27 % dose organ-1; in data set [36], 19.08 % dose organ-1; in data set [37] it was 1.54 % dose organ-1; in [38], 0.18 % dose organ-1. Besides, the Biodistribution in data set [39] was found to be 0.15 % dose organ-1; in data set [40], 7.41 % dose organ-1; in data set [41], 1.08 % dose organ-1; in data set [42] it was 0.46 % dose organ-1; in [43], 0.77 % dose organ-1; in data set [44], 0.048 % dose organ-1. Moreover, the Biodistribution in data set [45] is 0.04 % dose organ-1; in data set [46] it was 1 % dose organ-1. Further, the Ki in data set [14] and in [1] was 2.54 nM in each case.
